Reference: patent US20210154162A1, “DRUG AND PHARMACEUTICAL COMPOSITION CONTAINING TRANSPORT PROTEIN INHIBITOR, AND USE” (Institute of Basic Medical Sciences Chinese Academy of …, priority 2018, published 2021)

Tests used:
PD-1 promoter = PD-1 promoter luciferase reporter in HEK293T cells; assay type: cell-based; conditions: Kyn 48 h
Experimental: (6) HEK293T cells were transiently co-transfected with the luciferase reporter PGL3 coupled to the PD-1 promoter together with an AhR or an empty plasmid for 24 h and then treated with Kyn for another 48 h.

PD-1 [1] = assay: PD-1 expression in resting CD8+ T cells treated with Kyn (flow cytometry); assay type: cell-based, mouse
Experimental: (1) CD8^+ T cells were treated with Kyn (200 μM) for the time periods. The expression of PD-1 was determined by flow cytometry.

AhR = AhR localisation and expression in CD8+ T cells (confocal microscopy, western blot); assay type: cell-based, mouse; conditions: 48 h
Experimental: (1) CD8^+ T cells isolated from spleen were stimulated with 200 μM Kyn or Kyn+anti-CD3/CD28 beads for 48 h. CD8^+ T cells were fixed, stained with an anti-AhR antibody and imaged by confocal microscopy. Bar, […]. (2) The experimental steps were the same as those of step (1), except that the cytoplasmic and nuclear protein fractions were seperated prior to the western blot analysis of AhR. The intensity relative to that in the resting/Kyn group was calculated. (3) Western blot analysis of AhR expression in both resting CD8^+ T cells and anti-CD3/CD28 bead-activated CD8^+ T cells treated with PBS or Kyn (200 μM) for 48 h was carried out. AhR ratio of Nuc/Cyt was calculated relative to that in the Kyn (−) group.

CD8^+ T cells [2] = assay: Kyn i.p. injection in WT or AhR-/- C57BL/6 mice, analysis of CD8+ T cells; assay type: in vivo, mouse
Experimental: (1) WT C57BL/6 mice were i.p. injected with PBS or Kyn (50 μg, once per day) for 5 days, and CD8^+ T cells were sorted by FACS from the spleen and mesenteric lymph nodes. PD-1 expression was determined by flow cytometry (FIG. 6A). Some CD8^+ T cells from spleen were immunostained with AhR and DAPI (FIG. 6B), and the mRNA expression of PAT4 and SLC7A8 was determined by real-time PCR (FIG. 6C). […] Bar, […]. (2) The experimental steps were the same as those of step (1), except that AhR^−/− mice were used. (3) PD-1 expression in resting or anti-CD3/CD28 bead-activated splenic CD8^+ T cells was determined, wherein said cells were isolated from AhR^−/− C57BL/6 mice injected with PBS or Kyn for 5 days.

PD-1 [3] = assay: PD-1 expression in human CD8+ T cells treated with Kyn and AhR inhibitors (flow cytometry); assay type: cell-based; conditions: resting and activated CD8+ T cells from healthy donors, breast and lung cancer patients; Kyn 200 μM, 48 h
Experimental: (4) CD8^+ T cells isolated from PBMCs of patients with breast cancer or lung cancer were activated by anti-CD3/CD28 beads and treated with PBS, Kyn (200 μM) or Kyn/DMF (20 μM) for 48 h. The expression of PD-1 was determined by flow cytometry.
(5) CD8^+ T cells isolated from patients with breast cancer or lung cancer were treated with DMF (20 μM) for 48 h. PD-1 expression was determined by flow cytometry (n=6).

PAT4 and SLC7A8 = PAT4 and SLC7A8 expression in CD8+ T cells from breast cancer patients (real-time PCR); assay type: cell-based, human; conditions: human CD8+ T cells, Kyn, 48 h
Experimental: (8) CD8^+ T cells from breast cancer patients were treated with PBS, Kyn ([…] (20 μM) or Kyn/CH (50 μM) for 48 h. The expression of PAT4 and SLC7A8 was determined by real-time PCR. The determination results were as shown in FIG. 7I.

CD8^+ T cells [4] = assay: Essential amino acids in the cytosol of activated CD8+ T cells (LC-QE-MS); assay type: cell-based; conditions: 48-hour Kyn treatment
Excerpt: Regarding the antiport function in many transport systems, the inventors additionally analyzed the influence of SLC7A8 and PAT4 on the transport of other essential amino acids. After 48-hour treatment with or without Kyn, anti-CD3/CD28 bead-activated CD8^+ T cells were used to analyze essential amino acids in the cytosol by LC-QE-MS.

PD-1 [5] = assay: Effect of SAR and BCH on PD-1 expression in human peripheral blood CD8+ T cells (flow cytometry); assay type: cell-based; conditions: breast cancer patients, 200 μM Kyn, 48 h
Experimental: Mononuclear cells were isolated and obtained from the peripheral whole blood of breast cancer patients by using Ficoll. CD8^+ T cells were sorted by magnetic beads, and seeded into a U-shaped bottom 96-well plate (100000 cells/well) while anti-CD3/CD28 magnetic beads were added to activate T cells. The culture medium was RPMI-1640 added with 10 ng/mL human IL-2. Cells were grouped and treated with drugs as follows.
Control group 1 (PBS): culture medium+PBS;
Experimental group 2 (Kyn): culture medium+200 μM Kyn;
Experimental group 3 (Kyn+SAR): culture medium+200 μM Kyn+10 mM SAR; Experimental group 4 (Kyn+BCH): culture medium+200 μM Kyn+100 μM BCH;
The expression level of PD-1 in CD8^+ T cells of each group was determined by flow cytometry after 48 h.

Nc1ccccc1C(=O)CC(N)C(=O)O (centres unmarked) [Kyn, kynurenine]
increase of the luciferase activity (PD-1 promoter; HEK293T overexpressing AhR): 12 fold
increase of the luciferase activity (PD-1 promoter; HEK293T with intrinsic AhR expression (empty control plasmid)): 4 fold
time point of initial increase of PD-1 (PD-1 [1]; Kyn alone): 48 h
PD-1 expression (PD-1 [1]; Kyn alone 200 μM): enough to upregulate PD-1
AhR localisation (AhR; activated T cells, 200 μM Kyn): translocation of cytoplasmic AhR to the nucleus
AhR expression (AhR; resting T cells, Kyn 200 μM, further increased in activated T cells): upregulated
PD-1 expression (CD8^+ T cells [2]; AhR-/- mice, Kyn for 5 days): failed to induce
PD-1 expression in CD8+ T cells of spleen and lymph nodes (CD8^+ T cells [2]; WT C57BL/6 mice, Kyn 50 μg i.p. once per day, 5 days): upregulated PD-1 expression
expression of Kyn transporters SLC7A8 and PAT4 (CD8^+ T cells [2]; WT C57BL/6 mice, Kyn 50 μg i.p., 5 days): upregulated
AhR localisation in CD8+ T cells (CD8^+ T cells [2]; WT C57BL/6 mice, Kyn 50 μg i.p., 5 days, spleen): translocated to the nucleus
PD-1 expression (PD-1 [3]): upregulated
expression of SLC7A8 and PAT4 (PAT4 and SLC7A8): upregulated
essential amino acids in the cytosol (CD8^+ T cells [4]): had no effect on most of the essential amino acids except some decrease of the intensity of threonine
PD-1 expression in peripheral blood CD8+ T cells (PD-1 [5]): significant increased
